According to patent US20240368135A1 (VERTEX PHARMACEUTICALS INCORPORATED, priority 2021, published 2024):

Target: human NaV 1.8 (Homo sapiens, UniProt Q9Y5Y9)
Experiment: E-VIPR assay detecting and measuring NaV inhibition properties
Format: cell-based
Conditions: HEK cells expressing truncated human NaV 1.8; in the presence of human serum (compound numbers followed by *); read-out: IC50 in the E-VIPR Assay, performed in the presence of human serum
Outline: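 HEK cells expressing truncated, fully active human NaV1.8, with KIR2.1 BacMam co-transduction, were loaded with CC2-DMPE/DiSBAC6(3) voltage-sensing dyes for 20 min at room temperature. Compounds were tested in 11-point 3-fold dilutions (300 nM top final), optionally with 25% human serum, under electrical stimulation with FRET read-out.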

human NaV 1.8, sequence (Q9Y5Y9 126-399 limits assumed): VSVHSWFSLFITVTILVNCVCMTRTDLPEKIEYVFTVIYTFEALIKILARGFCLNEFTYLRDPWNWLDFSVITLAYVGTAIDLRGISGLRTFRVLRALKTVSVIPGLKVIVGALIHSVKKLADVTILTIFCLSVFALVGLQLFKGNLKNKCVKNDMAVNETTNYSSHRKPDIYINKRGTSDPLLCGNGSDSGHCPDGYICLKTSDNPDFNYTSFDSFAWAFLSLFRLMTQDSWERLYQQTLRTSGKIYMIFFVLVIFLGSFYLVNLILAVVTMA
human NaV 1.8, sequence (Q9Y5Y9 660-890 limits assumed): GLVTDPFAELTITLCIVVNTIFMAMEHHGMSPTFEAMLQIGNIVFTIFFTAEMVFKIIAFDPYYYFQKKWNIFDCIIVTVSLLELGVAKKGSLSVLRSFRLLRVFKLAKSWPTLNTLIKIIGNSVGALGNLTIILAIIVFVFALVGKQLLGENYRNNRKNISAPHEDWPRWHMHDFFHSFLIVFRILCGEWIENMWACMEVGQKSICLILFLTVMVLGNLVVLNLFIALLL
human NaV 1.8, sequence (Q9Y5Y9 1148-1722 limits assumed): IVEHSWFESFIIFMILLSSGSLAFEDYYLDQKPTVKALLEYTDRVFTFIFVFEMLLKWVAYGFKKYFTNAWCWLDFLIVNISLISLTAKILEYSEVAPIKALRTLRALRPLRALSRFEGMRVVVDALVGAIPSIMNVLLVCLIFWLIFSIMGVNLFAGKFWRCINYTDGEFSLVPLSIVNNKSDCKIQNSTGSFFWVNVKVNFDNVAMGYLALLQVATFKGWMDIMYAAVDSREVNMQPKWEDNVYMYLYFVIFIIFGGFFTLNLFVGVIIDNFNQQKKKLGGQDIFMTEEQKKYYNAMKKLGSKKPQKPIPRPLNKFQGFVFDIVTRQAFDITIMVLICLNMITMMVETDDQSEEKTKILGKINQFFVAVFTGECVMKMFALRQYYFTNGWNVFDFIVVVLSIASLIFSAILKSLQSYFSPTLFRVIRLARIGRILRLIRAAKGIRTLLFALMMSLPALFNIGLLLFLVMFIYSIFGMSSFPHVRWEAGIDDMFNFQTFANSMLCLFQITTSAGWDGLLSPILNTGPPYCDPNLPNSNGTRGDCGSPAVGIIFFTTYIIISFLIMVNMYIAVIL

`C[C@@H]1[C@H](c2ccc(F)c(F)c2OC(F)F)[C@@H](C(=O)Nc2cccnc2)O[C@]1(C)C(F)(F)F` (single isomer, unassigned) [Compound 66] was tested, and the IC50 was at least 1000 nM.

Same assay, conditions: HEK cells expressing truncated human NaV 1.8; no human serum; read-out: IC50 in the E-VIPR Assay

Compared with `COc1c([C@H]2[C@H](C(=O)Nc3ccnc(N4C[C@H]5CC[C@@H](C4=O)N5C)c3)O[C@@](C)(C(F)(F)F)[C@H]2C)ccc(F)c1F` (single isomer, unassigned) [Compound 503, rel-(2R*,3S*,4S*,5R*)-3-(3,4-difluoro-2-methoxyphenyl)-4,5-dimethyl-N-(2-((1S,5R)-8-methyl-2-oxo-3,8-diazabicyclo[3.2.1]octan-3-yl)pyridin-4-yl)-5-(trifluoromethyl)tetrahydrofuran-2-carboxamide], `COc1c([C@H]2[C@H](C(=O)Nc3ccnc(N4CCN(C)[C@@H](C)C4=O)c3)O[C@@](C)(C(F)(F)F)[C@H]2C)ccc(F)c1F` [Compound 476, (2R,3S,4S,5R)-3-(3,4-difluoro-2-methoxyphenyl)-N-(2-((S)-3,4-dimethyl-2-oxopiperazin-1-yl)pyridin-4-yl)-4,5-dimethyl-5-(trifluoromethyl)tetrahydrofuran-2-carboxamide] is higher in IC50: under 10 nM for the first, 10 to 100 nM for the second. The first is the more potent here.

First: C[C@H]1[C@@H](c2ccc(F)c(F)c2OCCO)[C@H](C(=O)Nc2cnc(N3CCOCC3)nc2)O[C@@]1(C)C(F)(F)F [Compound 542, (2R,3S,4S,5R)-3-(3,4-difluoro-2-(2-hydroxyethoxy)phenyl)-4,5-dimethyl-N-(2-morpholinopyrimidin-5-yl)-5-(trifluoromethyl)tetrahydrofuran-2-carboxamide]
Second: C[C@H]1[C@@H](c2ccc(F)c(F)c2OCCO)[C@H](C(=O)Nc2ccc(C(F)F)nc2)O[C@@]1(C)C(F)(F)F [Compound 571, (2R,3S,4S,5R)-3-(3,4-difluoro-2-(2-hydroxyethoxy)phenyl)-N-(6-(difluoromethyl)pyridin-3-yl)-4,5-dimethyl-5-(trifluoromethyl)tetrahydrofuran-2-carboxamide]
The IC50 of the first is higher: at least 1000 nM for the first, 10 to 100 nM for the second. The second is the more potent here.

Going from `COc1c(C2C(C(=O)Nc3ccnc(CO)c3)OC(C)(C(F)(F)F)C2C)ccc(F)c1F` (stereo not drawn) [Compound 61, 3-(3,4-difluoro-2-methoxy-phenyl)-N-[2-(hydroxymethyl)-4-pyridyl]-4,5-dimethyl-5-(trifluoromethyl)tetrahydrofuran-2-carboxamide] to `COc1c(C2C(C(=O)Nc3ccnc(C(O)CO)c3)OC(C)(C(F)(F)F)C2C)ccc(F)c1F` (single isomer, unassigned) [Compound 46, 3-(3,4-difluoro-2-methoxy-phenyl)-N-[2-(1,2-dihydroxyethyl)-4-pyridyl]-4,5-dimethyl-5-(trifluoromethyl)tetrahydrofuran-2-carboxamide], the IC50 falls from at least 1000 nM to under 10 nM. The second is the more potent here.

First: C[C@H]1[C@@H](c2ccc(F)c(F)c2OCC2CC(F)(F)C2)[C@H](C(=O)Nc2ccnc(CO)c2)O[C@@]1(C)C(F)(F)F [Compound 644, (2R,3S,4S,5R)-3-(2-((3,3-difluorocyclobutyl)methoxy)-3,4-difluorophenyl)-N-(2-(hydroxymethyl)pyridin-4-yl)-4,5-dimethyl-5-(trifluoromethyl)tetrahydrofuran-2-carboxamide]
Second: COc1c([C@H]2[C@H](C(=O)Nc3ccnc(CN4CCCC4)c3)O[C@@](C)(C(F)(F)F)[C@H]2C)ccc(F)c1F [Compound 184, (2R,3S,4S,5R)-3-(3,4-difluoro-2-methoxyphenyl)-4,5-dimethyl-N-(2-(pyrrolidin-1-ylmethyl)pyridin-4-yl)-5-(trifluoromethyl)tetrahydrofuran-2-carboxamide]
The IC50 of the first is higher: 10 to 100 nM for the first, under 10 nM for the second. The second is the more potent here.

Compared with `COc1c([C@H]2[C@H](C(=O)Nc3ccc(S(C)(=N)=O)nc3)O[C@@](C)(C(F)(F)F)[C@H]2C)ccc(F)c1F` (single isomer, unassigned) [Compound 337, rel-(2R*,3S*,4S*,5R*)-3-(3,4-difluoro-2-methoxyphenyl)-4,5-dimethyl-N-(6-(S-methylsulfonimidoyl)-pyridin-3-yl)-5-(trifluoromethyl)-tetrahydrofuran-2-carboxamide], `COc1c(C2C(C(=O)Nc3cncnc3)OC(C)(C(F)(F)F)C2C)ccc(F)c1F` (single isomer, unassigned) [Compound 38, 3-(3,4-difluoro-2-methoxy-phenyl)-4,5-dimethyl-N-pyrimidin-5-yl-5-(trifluoromethyl)tetrahydrofuran-2-carboxamide] is lower in IC50: 10 to 100 nM for the first, under 10 nM for the second. The second is the more potent here.

`CCOc1c([C@H]2[C@H](C(=O)Nc3ccnc(S(C)(=O)=O)c3)O[C@@](C)(C(F)(F)F)[C@H]2C)ccc(F)c1F` (stereo in doubt) [Compound 108, rel-(2R,3S,4S,5R)-3-(2-ethoxy-3,4-difluorophenyl)-4,5-dimethyl-N-(2-(methylsulfonyl)pyridin-4-yl)-5-(trifluoromethyl)tetrahydrofuran-2-carboxamide] and `COCC(C)(N)c1cc(NC(=O)[C@@H]2O[C@@](C)(C(F)(F)F)[C@@H](C)[C@H]2c2ccc(F)c(F)c2OC)ccn1` (single isomer, unassigned) [Compound 352, rel-(2R*,3S*,4S*,5R*)-N-(2-(2-amino-1-methoxypropan-2-yl)pyridin-4-yl)-3-(3,4-difluoro-2-methoxyphenyl)-4,5-dimethyl-5-(trifluoromethyl)-tetrahydrofuran-2-carboxamide] cannot be ordered by IC50: under 10 nM for the first, under 10 nM for the second.

First: COc1c(C2C(C(=O)Nc3ccn4nnnc4c3)OC(C)(C(F)(F)F)C2C)ccc(F)c1C (single isomer, unassigned) [Compound 133, 3-(4-fluoro-2-methoxy-3-methyl-phenyl)-4,5-dimethyl-N-(tetrazolo[1,5-a]pyridin-7-yl)-5-(trifluoromethyl)tetrahydrofuran-2-carboxamide]
Second: COCCNCc1cc(NC(=O)C2OC(C)(C(F)(F)F)C(C)C2c2ccc(F)c(F)c2OC)ccn1 (stereo not drawn) [Compound 60, 3-(3,4-difluoro-2-methoxy-phenyl)-N-[2-[(2-methoxyethylamino)methyl]-4-pyridyl]-4,5-dimethyl-5-(trifluoromethyl)tetrahydrofuran-2-carboxamide]
The IC50 of the first is higher: 100 to 1000 nM for the first, under 10 nM for the second.

`Cc1nn(C(N)=O)cc1NC(=O)[C@@H]1O[C@@](C)(C(F)(F)F)[C@@H](C)[C@H]1c1ccc(F)c(F)c1OCCN1CCOCC1` [Compound 593, 4-((2R,3S,4S,5R)-3-(3,4-difluoro-2-(2-morpholinoethoxy)phenyl)-4,5-dimethyl-5-(trifluoromethyl)tetrahydrofuran-2-carboxamido)-3-methyl-1H-pyrazole-1-carboxamide] and `Cc1nocc1NC(=O)[C@@H]1O[C@@](C)(C(F)(F)F)[C@@H](C)[C@H]1c1ccc(F)c(F)c1OCCN1CC(C)(F)C1` [Compound 630, (2R,3S,4S,5R)-3-(3,4-difluoro-2-(2-(3-fluoro-3-methylazetidin-1-yl)ethoxy)phenyl)-4,5-dimethyl-N-(3-methylisoxazol-4-yl)-5-(trifluoromethyl)tetrahydrofuran-2-carboxamide] fall in the same range of IC50: 10 to 100 nM for the first, 10 to 100 nM for the second.

First: COCCOc1c([C@H]2[C@H](C(=O)Nc3ccc(=O)n(C)c3)O[C@@](C)(C(F)(F)F)[C@H]2C)ccc(F)c1F [Compound 584, (2R,3S,4S,5R)-3-(3,4-difluoro-2-(2-methoxyethoxy)phenyl)-4,5-dimethyl-N-(1-methyl-6-oxo-1,6-dihydropyridin-3-yl)-5-(trifluoromethyl)tetrahydrofuran-2-carboxamide]
Second: C[C@H]1[C@@H](c2ccc(F)c(F)c2OCCO)[C@H](C(=O)Nc2ccon2)O[C@@]1(C)C(F)(F)F [Compound 556, (2R,3S,4S,5R)-3-(3,4-difluoro-2-(2-hydroxyethoxy)phenyl)-N-(isoxazol-3-yl)-4,5-dimethyl-5-(trifluoromethyl)tetrahydrofuran-2-carboxamide]
The IC50 of the first is lower: under 10 nM for the first, 100 to 1000 nM for the second. The first is the more potent here.

`COc1c([C@H]2[C@H](C(=O)NC(C)c3ccc(C)c(F)c3)O[C@@](C)(C(F)(F)F)[C@H]2C)ccc(F)c1F` (stereo partly drawn) [Compound 308, (2R,3S,4S,5R)-3-(3,4-difluoro-2-methoxyphenyl)-N-(1-(3-fluoro-4-methylphenyl)ethyl)-4,5-dimethyl-5-(trifluoromethyl)tetrahydrofuran-2-carboxamide] and `COc1c([C@H]2[C@H](C(=O)NCCc3c(C)noc3C)O[C@@](C)(C(F)(F)F)[C@H]2C)ccc(F)c1F` [Compound 287, (2R,3S,4S,5R)-3-(3,4-difluoro-2-methoxyphenyl)-N-(2-(3,5-dimethylisoxazol-4-yl)ethyl)-4,5-dimethyl-5-(trifluoromethyl)tetrahydrofuran-2-carboxamide] cannot be ordered by IC50: at least 1000 nM for the first, at least 1000 nM for the second.

`COc1c(C2C(C(=O)Nc3ccc(C(N)=O)nc3)OC(C)(C(F)(F)F)C2C)ccc(C(F)F)c1F` (stereo not drawn) [Compound 158, 5-[[3-[4-(difluoromethyl)-3-fluoro-2-methoxy-phenyl]-4,5-dimethyl-5-(trifluoromethyl)tetrahydrofuran-2-carbonyl]amino]pyridine-2-carboxamide] and `CC(=O)N(C)c1cc(NC(=O)[C@@H]2O[C@@](C)(C(F)(F)F)[C@@H](C)[C@H]2c2ccc(F)c(F)c2OCCN2CC3(COC3)C2)ccn1` [Compound 637, (2R,3S,4S,5R)-N-[2-[acetyl(methyl)amino]-4-pyridyl]-3-[3,4-difluoro-2-[2-(2-oxa-6-azaspiro[3.3]heptan-6-yl)ethoxy]phenyl]-4,5-dimethyl-5-(trifluoromethyl)tetrahydrofuran-2-carboxamide] fall in the same range of IC50: 10 to 100 nM for the first, 10 to 100 nM for the second.

`COc1c([C@H]2[C@H](C(=O)NCC(C)N3CCN(C)CC3)O[C@@](C)(C(F)(F)F)[C@H]2C)ccc(F)c1F` (stereo partly drawn) [Compound 293, (2R,3S,4S,5R)-3-(3,4-difluoro-2-methoxyphenyl)-4,5-dimethyl-N-(2-(4-methylpiperazin-1-yl)propyl)-5-(trifluoromethyl)tetrahydrofuran-2-carboxamide] showed an IC50 of at least 1000 nM.
